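Tested at 5 concentrations; 48 h exposure; 96-well plates; endpoints linearly interpolated, else capped at highest concentration. Here, GI50 denotes the concentration required for 50% inhibition of growth. Definition used: TGI = concentration required for complete inhibition of growth.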
Columns and labels:
Test in all cases: NCI tumour cell line growth inhibition, 48 h
[1] = tested on: MDA-MB-231 breast
[2] = tested on: SF-539 CNS
[3] = tested on: RXF 393 renal
[4] = tested on: NCI-H460 lung
[5] = tested on: OVCAR-4 ovarian
[6] = tested on: M14 melanoma
[7] = tested on: PC-3 prostate
[8] = tested on: SNB-19 CNS
[9] = tested on: OVCAR-8 ovarian
[10] = tested on: SF-295 CNS
[11] = tested on: UO-31 renal
[12] = tested on: TK-10 renal
[13] = tested on: HCC-2998 colon
[14] = tested on: NCI-H23 lung
[15] = tested on: UACC-257 melanoma
[16] = tested on: SK-MEL-5 melanoma
[17] = tested on: HCT-116 colon
[18] = tested on: K-562 leukemia
[19] = tested on: COLO 205 colon
[20] = tested on: SK-MEL-2 melanoma
[21] = tested on: BT-549 breast
[22] = tested on: CAKI-1 renal
[23] = tested on: HOP-62 NSCLC
[24] = tested on: OVCAR-3 ovarian
[25] = tested on: T-47D breast
[26] = tested on: SK-MEL-28 melanoma
[27] = tested on: OVCAR-5 ovarian
[28] = tested on: SK-OV-3 ovarian
[29] = tested on: U251 CNS
[30] = tested on: LOX IMVI melanoma
[31] = tested on: SW-620 colon
[32] = tested on: EKVX NSCLC
[33] = tested on: ACHN renal
[34] = tested on: MOLT-4 leukemia
[35] = tested on: NCI-H226 lung
[36] = tested on: DU-145 prostate
[37] = tested on: UACC-62 melanoma
[38] = tested on: NCI-H522 lung
[39] = tested on: SF-268 CNS
[40] = tested on: IGROV1 ovarian
[41] = tested on: HCT-15 colon
[42] = tested on: MDA-MB-435
[43] = tested on: CCRF-CEM leukemia
[44] = tested on: SNB-75 CNS
[45] = tested on: RPMI-8226 leukemia
[46] = tested on: 786-0 renal
[47] = tested on: A498 renal
[48] = tested on: HS 578T breast
[49] = tested on: HT29 colon
[50] = tested on: HOP-92 NSCLC
[51] = tested on: SN12C renal
[52] = tested on: NCI/ADR-RES ovarian
[53] = tested on: A549 NSCLC
[54] = tested on: KM12 colon
[55] = tested on: MCF7 breast
[56] = tested on: HL-60(TB) leukemia

CCCCCCCCNCCC[C@@H](C)[C@H]1CC[C@H]2[C@@H]3[C@H](OCCCN)C[C@H]4C[C@H](OCCCN)CC[C@]4(C)[C@H]3C[C@H](OCCCN)[C@]12C
GI50 [1]: 0.983 µM
TGI [1]: 7.11 µM
GI50 [2]: 0.81 µM
TGI [2]: 2.6 µM
GI50 [3]: 2.22 µM
TGI [3]: 16.4 µM
TGI [4]: > 19.8 µM
GI50 [5]: 8.27 µM
TGI [5]: 29.4 µM
GI50 [6]: 1.64 µM
TGI [6]: 4.87 µM
GI50 [7]: 5.58 µM
TGI [7]: > 49.3 µM
GI50 [8]: 1.69 µM
TGI [8]: 5.24 µM
GI50 [9]: 1.82 µM
TGI [9]: 4.07 µM
GI50 [10]: 0.993 µM
TGI [10]: 4.43 µM
GI50 [11]: 1.49 µM
TGI [11]: 3.72 µM
GI50 [12]: 1.79 µM
TGI [12]: 7.36 µM
GI50 [13]: 2.04 µM
TGI [13]: 7 µM
GI50 [14]: 1.81 µM
TGI [14]: 5.4 µM
GI50 [15]: 2.89 µM
TGI [15]: 8.64 µM
GI50 [16]: 2.24 µM
TGI [16]: 6.54 µM
GI50 [17]: 0.87 µM
TGI [17]: 2.61 µM
GI50 [18]: 2.84 µM
TGI [18]: 11.5 µM
GI50 [19]: 2.6 µM
TGI [19]: 7.77 µM
GI50 [20]: 3.75 µM
TGI [20]: > 31.3 µM
GI50 [21]: 1.43 µM
TGI [21]: 4.35 µM
GI50 [22]: 3.09 µM
TGI [22]: 15.4 µM
GI50 [23]: 1.53 µM
TGI [23]: 7.16 µM
GI50 [24]: 5 µM
TGI [24]: 21.5 µM
GI50 [25]: 3.92 µM
TGI [25]: > 26.7 µM
GI50 [26]: 0.776 µM
TGI [26]: 2.78 µM
GI50 [27]: 2.26 µM
TGI [27]: 12.5 µM
GI50 [28]: 4.72 µM
TGI [28]: 21.9 µM
GI50 [29]: 2.23 µM
TGI [29]: 6.32 µM
GI50 [30]: 1.57 µM
TGI [30]: 3.54 µM
GI50 [31]: 1.72 µM
TGI [31]: 3.85 µM
GI50 [32]: 2.01 µM
TGI [32]: 6.65 µM
GI50 [33]: 2.02 µM
TGI [33]: 6.41 µM
GI50 [34]: 3.12 µM
TGI [34]: 9.69 µM
GI50 [35]: 5.21 µM
TGI [35]: 23.6 µM
GI50 [36]: 1.14 µM
TGI [36]: 2.35 µM
GI50 [37]: 1 µM
TGI [37]: 3.84 µM
GI50 [38]: 2.48 µM
TGI [38]: 7.16 µM
GI50 [39]: 1.5 µM
TGI [39]: 3.7 µM
GI50 [40]: 1.49 µM
TGI [40]: 3.25 µM
GI50 [41]: 3.39 µM
TGI [41]: 16.9 µM
GI50 [42]: 0.768 µM
TGI [42]: 2.5 µM
GI50 [43]: 1.89 µM
TGI [43]: 4.27 µM
GI50 [44]: 2.52 µM
TGI [44]: 11.6 µM
GI50 [45]: 1.27 µM
TGI [45]: 3.49 µM
GI50 [46]: 1.21 µM
TGI [46]: 3.3 µM
GI50 [47]: 21.3 µM
TGI [47]: 54.5 µM
GI50 [48]: 2.43 µM
TGI [48]: 5.59 µM
GI50 [49]: 1.71 µM
TGI [49]: 7.59 µM
GI50 [50]: 0.429 µM
TGI [50]: 8.46 µM
GI50 [51]: 1.21 µM
TGI [51]: 5.68 µM
GI50 [52]: 1.93 µM
TGI [52]: 5.27 µM
GI50 [53]: 2.43 µM
TGI [53]: 8.81 µM

COc1ncnc(S(=O)(=O)c2ccc(N=C3C(=O)N(CN4CCN(c5cc6c(cc5F)c(=O)c(C(=O)O)cn6C5CC5)CC4)c4ccc(Cl)cc43)cc2)c1OC
GI50 [1]: 28.5 µM
TGI [1]: > 50 µM
GI50 [2]: > 50 µM
TGI [2]: > 50 µM
GI50 [3]: > 50 µM
TGI [3]: > 50 µM
GI50 [4]: 37.4 µM
TGI [4]: > 50 µM
GI50 [6]: > 50 µM
TGI [6]: > 50 µM
GI50 [7]: 34.9 µM
TGI [7]: > 50 µM
GI50 [8]: > 50 µM
TGI [8]: > 50 µM
GI50 [9]: 32.9 µM
TGI [9]: > 50 µM
GI50 [10]: > 50 µM
TGI [10]: > 50 µM
GI50 [11]: 47.2 µM
TGI [11]: > 50 µM
GI50 [12]: 8.78 µM
TGI [12]: 36.7 µM
GI50 [13]: 37.9 µM
TGI [13]: > 50 µM
GI50 [14]: > 50 µM
TGI [14]: > 50 µM
GI50 [15]: 46.4 µM
TGI [15]: > 50 µM
GI50 [16]: 19.7 µM
TGI [16]: > 50 µM
GI50 [17]: 26.4 µM
TGI [17]: > 50 µM
GI50 [18]: 24.6 µM
TGI [18]: > 50 µM
GI50 [19]: > 50 µM
TGI [19]: > 50 µM
GI50 [20]: > 50 µM
TGI [20]: > 50 µM
GI50 [54]: 24.2 µM
TGI [54]: > 50 µM
GI50 [22]: 12.7 µM
TGI [22]: > 50 µM
GI50 [23]: 31.6 µM
TGI [23]: > 50 µM
GI50 [24]: > 50 µM
TGI [24]: > 50 µM
GI50 [25]: > 50 µM
TGI [25]: > 50 µM
GI50 [26]: > 50 µM
TGI [26]: > 50 µM
GI50 [27]: > 50 µM
TGI [27]: > 50 µM
GI50 [29]: 18.7 µM
TGI [29]: > 50 µM
GI50 [30]: 23.8 µM
TGI [30]: > 50 µM
GI50 [31]: > 50 µM
TGI [31]: > 50 µM
GI50 [32]: 1.24 µM
TGI [32]: > 50 µM
GI50 [33]: 10.2 µM
TGI [33]: > 50 µM
GI50 [34]: 24.9 µM
TGI [34]: > 50 µM
GI50 [35]: 38.9 µM
TGI [35]: > 50 µM
GI50 [36]: > 50 µM
TGI [36]: > 50 µM
GI50 [37]: 8.75 µM
TGI [37]: > 50 µM
GI50 [38]: > 50 µM
TGI [38]: > 50 µM
GI50 [39]: 49 µM
TGI [39]: > 50 µM
GI50 [40]: > 50 µM
TGI [40]: > 50 µM
GI50 [41]: 19.7 µM
TGI [41]: > 50 µM
GI50 [42]: > 50 µM
TGI [42]: > 50 µM
GI50 [55]: 34.1 µM
TGI [55]: > 50 µM
GI50 [45]: 13.5 µM
TGI [45]: > 50 µM
GI50 [46]: 33.7 µM
TGI [46]: > 50 µM
GI50 [48]: 6.16 µM
TGI [48]: > 50 µM
GI50 [49]: > 50 µM
TGI [49]: > 50 µM
GI50 [50]: > 50 µM
TGI [50]: > 50 µM
GI50 [56]: 26.8 µM
TGI [56]: > 50 µM
GI50 [51]: 30.4 µM
TGI [51]: > 50 µM
GI50 [52]: > 50 µM
TGI [52]: > 50 µM
GI50 [53]: > 50 µM
TGI [53]: > 50 µM

From PubChem BioAssay (NCI)
